Assay results reported in US20250034592A1, “NEUROPEPTIDE-[…] AND METHODS FOR THE TREATMENT OF EPILEPSY” (CHARITE - UNIVERSIT[…], priority 2016, published 2025).

Test system: pDyn deficient mice
Experiment: Seizure threshold, pentylenetetrazole (PTZ) tail-vein infusion
Assay type: in vivo
Settings: FIG. 6; for potency in seizure threshold test: compared with Dyn B
Description: Pentylenetetrazole is an inhibitor of GABAA receptors and induces seizures upon injection into the tail vein. pDyn deficient animals display a reduce seizure threshold compared to wild-type mice. […] From this, we expect an early onset of the effect of gene therapy and a lower number of vectors needed per patient.
The seizure threshold is a measure for the susceptibility to develop seizures. The resistance against seizure-inducing agents or stimuli is used as readout in animals. Infusion of pentylenetetrazole, a GABAA receptor antagonist, into the tail vein of rodents is an accepted method to measure the seizure threshold. […] This can be rescued by kappa opioid receptors agonists.
Seizure threshold was determined by pentylenetetrazole (PTZ) (see FIG. 6) tail-vein infusion on freely moving pDyn deficient mice at a rate of 100 μl/min ([…] PTZ in saline, pH 7.4). […] The seizure threshold dose was calculated from the infused volume in relation to body weight. Dyn B or modified variants thereof were dissolved in DMSO and diluted to the final dosages in saline containing final concentrations of 10% DMSO, 3% Tween 80. 3 μl of peptide-solution were applied 30 min. before tail-vein infusion under mild sevoflurane anaesthesia into the cisterna magna. The following peptides were tested: Dyn B=SEQ ID No. 8, Dyn B G3A=SEQ ID 10 No. 11 wherein Z at position 3 is alanine, Dyn B G3A+Q8A=SEQ ID No. 11 wherein Z at position 3 is alanine and Z at position 8 of SEQ ID No. 11 is alanine, Dyn B Q8A=SEQ ID No. 11 wherein Z at position 8 is alanine.

Substance	seizure threshold (peptide applied into cisterna magna 30 min before)	potency in seizure threshold test
Dynorphin B [Dyn B, reference compound]	rescued	
Dyn B G3A: SEQ ID No. 11 (YGZFLRRZFKVVT) wherein Z at position 3 is alanine (YGAFLRRXFKVVT; VARIANT 3 Any amino acid; VARIANT 8 Any amino acid; listed as Homo sapiens)		higher potency
Dyn B G3A+Q8A: SEQ ID No. 11 wherein Z at position 3 is alanine and Z at position 8 is alanine (YGAFLRRAFKVVT; VARIANT 3 Any amino acid; VARIANT 8 Any amino acid; listed as Homo sapiens)		higher potency
